According to patent US20070037830A1, “2-Adamantyl derivatives as p2X7 receptor antagonists” (ASTRAZENECA AB, priority 2003, published 2007):

melting point [°C]	Structure (SMILES)
193 to 196	COc1ccc(C)c(NC(=O)CC2C3CC4CC(C3)CC2C4)c1 (centres unmarked) [Example 1, 2-(2-Adamantyl)-N-(5-methoxy-2-methylphenyl)acetamide]
206 to 208	O=C(CC1C2CC3CC(C2)CC1C3)Nc1cccc2[nH]ccc12 (centres unmarked) [Example 2, 2-(2-Adamantyl)-N-1H-indol-4-ylacetamide]
